Results taken from ChEMBL document CHEMBL4385621, “Synthesis and in vitro cytotoxicity evaluation of β-carboline-combretastatin carboxamides as apoptosis inducing agents: DNA intercalation and topoisomerase-II inhibition” (Bioorg Med Chem, 2019).
Calls of active or inactive are those of the source. The calls are words filed in the database; no cut-off is given here.

Experiments:
A549 [1] = test: Induction of apoptosis in human A549 cells assessed as viable cells at 5 uM after 24 hrs by Annexin V-FITC/propidium iodide staining based flow cytometry (reference value: 88.4%); type: functional; conditions: A549, 24 h, read-out: Activity
A549 [2] = test: Induction of apoptosis in human A549 cells assessed as nuclear fragmentation at 1 uM after 24 hrs by Hoechst […] staining based fluorescence microscopic method; type: functional, cell-based
Calf thymus DNA [3] = test: Binding affinity to calf thymus DNA assessed as decrease in emission peak intensity using varying DNA level by spectrofluorimetric method; type: nucleic-acid assay; conditions: Bos taurus
Calf thymus DNA [4] = test: Binding affinity to calf thymus DNA assessed as hypochromicity after 5 mins by UV-Vis absorption spectral analysis; type: nucleic-acid assay; conditions: Bos taurus
Calf thymus DNA [5] = test: Binding affinity to calf thymus DNA assessed as hypochromicity at DNA to compound ratio of 1:1 to 1:2 by circular dichroism analysis; type: nucleic-acid assay; conditions: Bos taurus
Calf thymus DNA [6] = test: Stabilization of calf thymus DNA assessed as hyperchromicity at DNA to compound ratio of 1:1 by circular dichroism spectropolarimetric analysis; type: nucleic-acid assay; conditions: Bos taurus
A549 [7] = test: Induction of apoptosis in human A549 cells assessed as viable cells at 3 uM after 24 hrs by Annexin V-FITC/propidium iodide staining based flow cytometry (reference value: 88.4%); type: functional; conditions: A549, 24 h, read-out: Activity
A549 [8] = test: Antiproliferative activity against human A549 cells assessed as reduction in cell viability after 48 hrs by SRB assay; type: functional, cell-based; conditions: A549, 48 h
A549 [9] = test: Cell cycle arrest in human A549 cells assessed as reduction in G0/G1 phase at 1 to 5 uM after 24 hrs by propidium iodide staining based flow cytometric analysis; type: functional
A549 [10] = test: Induction of apoptosis in human A549 cells assessed as late apoptotic cells at 5 uM after 24 hrs by Annexin V-FITC/propidium iodide staining based flow cytometry (reference value: 0.4%); type: functional
A549 [11] = test: Induction of apoptosis in human A549 cells assessed as increase in apoptotic nuclei at 3 to 5 uM after 24 hrs by Hoechst […] staining based fluorescence microscopic method; type: functional, cell-based
Calf thymus DNA [12] = test: Binding affinity to calf thymus DNA assessed as decrease in emission peak intensity by spectrofluorimetric method; type: nucleic-acid assay; conditions: Bos taurus
A549 [13] = test: Induction of apoptosis in human A549 cells assessed as late apoptotic cells at 1 uM after 24 hrs by Annexin V-FITC/propidium iodide staining based flow cytometry (reference value: 0.4%); type: functional
A549 [14] = test: Induction of apoptosis in human A549 cells assessed as early apoptotic cells at 3 uM after 24 hrs by Annexin V-FITC/propidium iodide staining based flow cytometry (reference value: 11.2%); type: functional
HeLa = test: Antiproliferative activity against human HeLa cells assessed as reduction in cell viability after 48 hrs by SRB assay; type: functional, cell-based
A549 [15] = test: Induction of apoptosis in human A549 cells after 24 hrs by Annexin V-FITC/propidium iodide staining based flow cytometry; type: functional, cell-based
[16] = target: DNA topoisomerase II (Homo sapiens) (UniProt P11388+Q02880); test: Inhibition of human topoisomerase-2 assessed as reduction in decatenation of kDNA at 10 uM incubated for 30 mins by ethidium bromide staining based agarose gel electrophoresis method; type: protein assay
A549 [17] = test: Induction of apoptosis in human A549 cells assessed as cell detachment from substratum at 1 to 5 uM after 24 hrs by phase contrast microscopic method; type: functional, cell-based
A549 [18] = test: Induction of apoptosis in human A549 cells assessed as chromatin condensation at 1 uM after 24 hrs by Hoechst […] staining based fluorescence microscopic method; type: functional, cell-based
A549 [19] = test: Induction of apoptosis in human A549 cells assessed as early apoptotic cells at 5 uM after 24 hrs by Annexin V-FITC/propidium iodide staining based flow cytometry (reference value: 11.2%); type: functional
Calf thymus DNA [20] = test: Binding affinity to calf thymus DNA assessed as dissociation constant after 5 mins by UV-Visible spectroscopic method; type: nucleic-acid assay, Bos taurus
A549 [21] = test: Induction of apoptosis in human A549 cells assessed as early apoptotic cells at 1 uM after 24 hrs by Annexin V-FITC/propidium iodide staining based flow cytometry (reference value: 11.2%); type: functional
Calf thymus DNA [22] = test: Effect on calf thymus DNA stabilization assessed as increase in negative band intensity by circular dichroism spectropolarimetric analysis; type: nucleic-acid assay; conditions: Bos taurus
A549 [23] = test: Induction of apoptosis in human A549 cells assessed as viable cells at 1 uM after 24 hrs by Annexin V-FITC/propidium iodide staining based flow cytometry (reference value: 88.4%); type: functional; conditions: A549, 24 h, read-out: Activity
A549 [24] = test: Induction of apoptosis in human A549 cells assessed as reduction in cell viability at 1 to 5 uM after 24 hrs by phase contrast microscopic method; type: functional, cell-based
Calf thymus DNA [25] = test: Binding affinity to calf thymus DNA assessed as confirmational change at DNA to compound ratio of 1:1 to 1:2 by circular dichroism analysis; type: nucleic-acid assay; conditions: Bos taurus
A549 [26] = test: Induction of apoptosis in human A549 cells assessed as necrotic cells at 1 uM after 24 hrs by Annexin V-FITC/propidium iodide staining based flow cytometry (reference value: 0%); type: functional
A549 [27] = test: Cell cycle arrest in human A549 cells assessed as increase in accumulation of G2/M phase at 1 to 5 uM after 24 hrs by propidium iodide staining based flow cytometric analysis; type: functional
Calf thymus DNA [28] = test: Binding affinity to calf thymus DNA assessed as unwinding effect at DNA to compound ratio of 1:1 to 1:2 by circular dichroism analysis; type: nucleic-acid assay; conditions: Bos taurus
A549 [29] = test: Induction of apoptosis in human A549 cells assessed as necrotic cells at 5 uM after 24 hrs by Annexin V-FITC/propidium iodide staining based flow cytometry (reference value: 0%); type: functional
A549 [30] = test: Induction of apoptosis in human A549 cells assessed as increase in ROS generation at 1 to 5 uM after 24 hrs by Carboxy-DCFDA dye based fluorescence microscopic method; type: functional, cell-based
A549 [31] = test: Induction of apoptosis in human A549 cells assessed as cell shrinkage at 1 to 5 uM after 24 hrs by phase contrast microscopic method; type: functional, cell-based
A549 [32] = test: Induction of apoptosis in human A549 cells assessed as late apoptotic cells at 3 uM after 24 hrs by Annexin V-FITC/propidium iodide staining based flow cytometry (reference value: 0.4%); type: functional
A549 [33] = test: Induction of apoptosis in human A549 cells assessed as necrotic cells at 3 uM after 24 hrs by Annexin V-FITC/propidium iodide staining based flow cytometry (reference value: 0%); type: functional
DU-145 = test: Antiproliferative activity against human DU145 cells assessed as reduction in cell viability after 48 hrs by SRB assay; type: functional, cell-based; conditions: DU-145, 48 h

COc1cc(/C(=C\c2ccc(C(F)(F)F)cc2)C(=O)NCc2cc3c([nH]c4ccccc43)c(-c3cccc(F)c3)n2)cc(OC)c1OC
viability at 5 µM (A549 [1]): 59.3%
Activity (A549 [2]): Active
Activity (Calf thymus DNA [3]): Active
Activity (Calf thymus DNA [4]): Active
Activity (Calf thymus DNA [5]): Active
Activity (Calf thymus DNA [6]): Active
viability at 3 µM (A549 [7]): 62.8%
IC50 (A549 [8]): 1.01 µM
Activity (A549 [9]): Active
Activity (A549 [10]): 4.9%
Activity (A549 [11]): Active
Activity (Calf thymus DNA [12]): Active
Activity (A549 [13]): 6.8%
Activity (A549 [14]): 28.6%
IC50 (HeLa): 9.97 µM
Activity (A549 [15]): Dose-dependent effect
inhibition [16]: Active
Activity (A549 [17]): Active
Activity (A549 [18]): Active
Activity (A549 [19]): 33.4%
Kd (Calf thymus DNA [20]): 71 µM
Activity (A549 [21]): 20.4%
Activity (Calf thymus DNA [22]): Active
viability at 1 µM (A549 [23]): 69.7%
Activity (A549 [24]): Active
Activity (Calf thymus DNA [25]): Active
Activity (A549 [26]): 3.2%
Activity (A549 [27]): Dose-dependent effect
Activity (Calf thymus DNA [28]): Active
Activity (A549 [29]): 2.4%
Activity (A549 [30]): Active
Activity (A549 [31]): Active
Activity (A549 [32]): 6.7%
Activity (A549 [33]): 1.9%
IC50 (DU-145): 1.51 µM
